Results reported in patent US9456602B2, “Method for the formulation of hand sanitizer” (Working Bugs, LLC, priority 2011, dated 2016).

How the values were obtained:
microorganisms = settings: 1996 paper, Fundamental and Applied Toxicology; cited from earlier work
E. coli bacteria [1] = experiment: Growth test of E. coli after exposure to sanitizer, dilution plating (Example 2); format: cell-based
Protocol: A 50 mL culture of the bacterium […] marcescens (S. marcescens) was grown, and four compounds were tested: an ethanol-based hand sanitizer currently on the market with 63% ethyl alcohol as the active ingredient, 60% isopropyl alcohol, and water as a control. 0.05 mL of the culture was exposed to one of the compounds for 15 and 60 seconds (except for the water, which was exposed for 30 seconds), and diluted by factors of powers of ten from a 10^-1 dilution to a 10^-10 dilution. 1 mL of each dilution was plated onto a CASO (a type of media) plate, and was incubated at 25 degrees Celsius (77 degrees Fahrenheit) for 48 hours. The colonies on the plates were then counted. The following is a table of the number of colonies on each plate (note-“Lawn” means that there were too many colonies to count individually). Example 2 followed the same protocol as Example 1, except E. coli bacteria were used instead of S. marcescens.

S. marcescens bacteria [2] = experiment: Growth test of S. marcescens, 15 s exposure (Example 5); format: cell-based; settings: exposed 15 seconds
Protocol: (§1) Both S. marcescens and E. coil were cultured in CASO broth overnight. The cells were exposed to one of four compounds for 15 seconds: DE broth, 60% Isopropyl Alcohol (IPA), A hand sanitizer on the market with 62% ethanol as an active ingredient (HSM), and the hand sanitizer specified in the patent (WB). The samples were then diluted by factors of powers of ten from a 10^−1 dilution to a 10^−10 dilution. 0.1 mL of each dilution was then plated onto a CASO plate, and then incubated for 24 hours. For Example 5, there was no ethanol present in the hand sanitizer formulation. The formulation consisted of 45% by volume of n-butanol, 10% of the humectant, and the remainder being water. The protocol followed for Example 5 was the same as the protocol for Example 4.

E. coli bacteria [3] = experiment: Growth test of E. coli, different growth medium, 0.5 mL plated (Example 3); format: cell-based; settings: exposed 10 s
Protocol: A 50 mL culture of the bacterium […] marcescens (S. marcescens) was grown, and four compounds were tested: an ethanol-based hand sanitizer currently on the market with 63% ethyl alcohol as the active ingredient, 60% isopropyl alcohol, and water as a control. 0.05 mL of the culture was exposed to one of the compounds for 15 and 60 seconds (except for the water, which was exposed for 30 seconds), and diluted by factors of powers of ten from a 10^-1 dilution to a 10^-10 dilution. 1 mL of each dilution was plated onto a CASO (a type of media) plate, and was incubated at 25 degrees Celsius (77 degrees Fahrenheit) for 48 hours. The colonies on the plates were then counted. The following is a table of the number of colonies on each plate (note-“Lawn” means that there were too many colonies to count individually). Example 2 followed the same protocol as Example 1, except E. coli bacteria were used instead of S. marcescens. Example 3 followed the same protocol as Example 2, except for the following: A different type of growth medium was used on the plates, and 0.5 mL of culture was plated onto each plate instead of 1 mL in order to prevent flooding the plate. In this Example, 60% isopropanol, an ethanol-based hand sanitizer on the market and the hand sanitizer proposed in the patent were all exposed to bacteria for 10 seconds, than plated.

[4] = test system: Seratia marcescens (S. marcescens); experiment: Growth test of S. marcescens after exposure to sanitizer, dilution plating (Example 1); format: cell-based
Protocol: A 50 mL culture of the bacterium […] marcescens (S. marcescens) was grown, and four compounds were tested: an ethanol-based hand sanitizer currently on the market with 63% ethyl alcohol as the active ingredient, 60% isopropyl alcohol, and water as a control. 0.05 mL of the culture was exposed to one of the compounds for 15 and 60 seconds (except for the water, which was exposed for 30 seconds), and diluted by factors of powers of ten from a 10^-1 dilution to a 10^-10 dilution. 1 mL of each dilution was plated onto a CASO (a type of media) plate, and was incubated at 25 degrees Celsius (77 degrees Fahrenheit) for 48 hours. The colonies on the plates were then counted. The following is a table of the number of colonies on each plate (note-“Lawn” means that there were too many colonies to count individually).

E. coli bacteria [5] = experiment: Growth test of E. coli, 15 s exposure, CASO plate (Example 4); format: cell-based; settings: exposed 15 seconds, 0.1 mL plated
Protocol: (§2) Both S. marcescens and E. coil were cultured in CASO broth overnight. The cells were exposed to one of four compounds for 15 seconds: DE broth, 60% Isopropyl Alcohol (IPA), A hand sanitizer on the market with 62% ethanol as an active ingredient (HSM), and the hand sanitizer specified in the patent (WB). The samples were then diluted by factors of powers of ten from a 10^−1 dilution to a 10^−10 dilution. 0.1 mL of each dilution was then plated onto a CASO plate, and then incubated for 24 hours. Note—the abbreviation “TNTC” stands for “too numerous to count”. “Lawn” represents a sample that was filled with bacteria.

S. marcescens bacteria [6] = experiment: Growth test of S. marcescens, 15 s exposure, CASO plate (Example 4); format: cell-based; settings: exposed 15 seconds, 0.1 mL plated
Protocol: as §2

E. coli bacteria [7] = experiment: Growth test of E. coli, 15 s exposure (Example 5); format: cell-based; settings: exposed 15 seconds
Protocol: as §1

CCCCO [1-butanol]
effectiveness in killing microorganisms compared with ethanol (microorganisms): more effective

CCCCCO [1-pentanol]
effectiveness in killing microorganisms compared with ethanol (microorganisms): more effective

CC(C)O [IPA, isopropyl alcohol]
number of colonies on plate (E. coli bacteria [1]; exposed 15 s, 10^−1 dilution): 0 colonies | number of colonies on plate (E. coli bacteria [1]; exposed 15 s, 10^−2 dilution): 0 colonies | number of colonies on plate (E. coli bacteria [1]; exposed 15 s, 10^−3 dilution): 0 colonies | number of colonies on plate (E. coli bacteria [1]; exposed 15 s, 10^−4 dilution): 0 colonies | number of colonies on plate (E. coli bacteria [1]; exposed 15 s, 10^−5 dilution): 0 colonies | number of colonies on plate (E. coli bacteria [1]; exposed 15 s, 10^−6 dilution): 0 colonies | number of colonies on plate (E. coli bacteria [1]; exposed 15 s, 10^−7 dilution): 0 colonies | number of colonies on plate (E. coli bacteria [1]; exposed 15 s, 10^−8 dilution): 0 colonies | number of colonies on plate (E. coli bacteria [1]; exposed 15 s, 10^−9 dilution): 0 colonies | number of colonies on plate (E. coli bacteria [1]; exposed 15 s, 10^−10 dilution): 0 colonies | number of colonies on plate (E. coli bacteria [1]; exposed 60 s, 10^−1 dilution): 0 colonies | number of colonies on plate (E. coli bacteria [1]; exposed 60 s, 10^−2 dilution): 0 colonies | number of colonies on plate (E. coli bacteria [1]; exposed 60 s, 10^−3 dilution): 0 colonies | number of colonies on plate (E. coli bacteria [1]; exposed 60 s, 10^−4 dilution): 0 colonies | number of colonies on plate (E. coli bacteria [1]; exposed 60 s, 10^−5 dilution): 0 colonies | number of colonies on plate (E. coli bacteria [1]; exposed 60 s, 10^−6 dilution): 0 colonies | number of colonies on plate (E. coli bacteria [1]; exposed 60 s, 10^−7 dilution): 0 colonies | number of colonies on plate (E. coli bacteria [1]; exposed 60 s, 10^−8 dilution): 0 colonies | number of colonies on plate (E. coli bacteria [1]; exposed 60 s, 10^−9 dilution): 0 colonies | number of colonies on plate (E. coli bacteria [1]; exposed 60 s, 10^−10 dilution): 0 colonies | growth test plate count (S. marcescens bacteria [2]; 10^−1 dilution): 0 | growth test plate count (S. marcescens bacteria [2]; 10^−2 dilution): 0 | growth test plate count (S. marcescens bacteria [2]; 10^−3 dilution): 0 | growth test plate count (S. marcescens bacteria [2]; 10^−4 dilution): 0 | growth test plate count (S. marcescens bacteria [2]; 10^−5 dilution): 0 | number of colonies on plate (E. coli bacteria [3]; 10^−1 dilution): 0 colonies | number of colonies on plate (E. coli bacteria [3]; 10^−2 dilution): 0 colonies | number of colonies on plate (E. coli bacteria [3]; 10^−3 dilution): 0 colonies | number of colonies on plate (E. coli bacteria [3]; 10^−4 dilution): 0 colonies | number of colonies on plate (E. coli bacteria [3]; 10^−5 dilution): 0 colonies | number of colonies on plate (E. coli bacteria [3]; 10^−6 dilution): 0 colonies | number of colonies on plate (E. coli bacteria [3]; 10^−7 dilution): 0 colonies | number of colonies on plate (E. coli bacteria [3]; 10^−8 dilution): 0 colonies | number of colonies on plate (E. coli bacteria [3]; 10^−9 dilution): 0 colonies | number of colonies on plate (E. coli bacteria [3]; 10^−10 dilution): 0 colonies | number of colonies on plate ([4]; exposed 15 s, 10^−1 dilution): 0 colonies | number of colonies on plate ([4]; exposed 15 s, 10^−2 dilution): 0 colonies | number of colonies on plate ([4]; exposed 15 s, 10^−3 dilution): 0 colonies | number of colonies on plate ([4]; exposed 15 s, 10^−4 dilution): 0 colonies | number of colonies on plate ([4]; exposed 15 s, 10^−5 dilution): 0 colonies | number of colonies on plate ([4]; exposed 15 s, 10^−6 dilution): 0 colonies | number of colonies on plate ([4]; exposed 15 s, 10^−7 dilution): 0 colonies | number of colonies on plate ([4]; exposed 15 s, 10^−8 dilution): 0 colonies | number of colonies on plate ([4]; exposed 15 s, 10^−9 dilution): 0 colonies | number of colonies on plate ([4]; exposed 15 s, 10^−10 dilution): 0 colonies | number of colonies on plate ([4]; exposed 60 s, 10^−1 dilution): 0 colonies | number of colonies on plate ([4]; exposed 60 s, 10^−2 dilution): 0 colonies | number of colonies on plate ([4]; exposed 60 s, 10^−3 dilution): 0 colonies | number of colonies on plate ([4]; exposed 60 s, 10^−4 dilution): 0 colonies | number of colonies on plate ([4]; exposed 60 s, 10^−5 dilution): 0 colonies | number of colonies on plate ([4]; exposed 60 s, 10^−6 dilution): 0 colonies | number of colonies on plate ([4]; exposed 60 s, 10^−7 dilution): 0 colonies | number of colonies on plate ([4]; exposed 60 s, 10^−8 dilution): 0 colonies | number of colonies on plate ([4]; exposed 60 s, 10^−9 dilution): 0 colonies | number of colonies on plate ([4]; exposed 60 s, 10^−10 dilution): 0 colonies | growth test plate count (E. coli bacteria [5]; 10^−1 dilution): 0 | growth test plate count (E. coli bacteria [5]; 10^−2 dilution): 0 | growth test plate count (E. coli bacteria [5]; 10^−3 dilution): 0 | growth test plate count (E. coli bacteria [5]; 10^−4 dilution): 0 | growth test plate count (E. coli bacteria [5]; 10^−5 dilution): 0 | growth test plate count (S. marcescens bacteria [6]; 10^−1 dilution): 1 | growth test plate count (S. marcescens bacteria [6]; 10^−2 dilution): 3 | growth test plate count (S. marcescens bacteria [6]; 10^−3 dilution): 10 | growth test plate count (S. marcescens bacteria [6]; 10^−4 dilution): 6 | growth test plate count (S. marcescens bacteria [6]; 10^−5 dilution): 2 | growth test plate count (E. coli bacteria [7]; 10^−1 dilution): 0 | growth test plate count (E. coli bacteria [7]; 10^−2 dilution): 0 | growth test plate count (E. coli bacteria [7]; 10^−3 dilution): 0 | growth test plate count (E. coli bacteria [7]; 10^−4 dilution): 0 | growth test plate count (E. coli bacteria [7]; 10^−5 dilution): 0

CCCO [1-propanol]
effectiveness in killing microorganisms compared with ethanol (microorganisms): more effective
